Results published in patent US20240050463A1, “THERAPEUTIC COMPOSITIONS AND METHODS FOR TREATING HEPATITIS B” (ARBUTUS BIOPHARMA CORPORATION, priority 2016, published 2024).

Legend:
[1] = system: HBV rcDNA in AML12-HBV10 cells; test: Inhibition of rcDNA in AML12-HBV10 cells (bDNA assay), checkerboard, MacSynergy II; format: cell-based, HBV (mouse hepatocyte cell line); conditions: Hepatitis B virus, AML12HBV10, in Mus musculus, expected from additive interaction; Compound 3 0.3125 μM; ETV μM in c0 of the row
Protocol: The two inhibitors were tested both singly as well as in combinations in a checkerboard fashion such that each concentration of inhibitor A was combined with each concentration of inhibitor B to determine their combination effects on inhibition of rcDNA production.

[2] = system: D type HBV in primary human hepatocytes (PHH); test: HBV DNA in culture supernatants of HBV-infected primary human hepatocytes (qPCR), MacSynergy; format: cell-based; conditions: COMPOUND 25 0.00 nM
Protocol: The mouse liver perfusion was applied to isolate PHHs. The isolated hepatocytes were further purified by Percoll. The cells were resuspended with culture media and seeded into the 96-well plates (6×10^4 cell/well) or 48-well plates (1.2×10^5 cell/well). The PHHs were infected with a D type HBV one day post seeding (day 1).
On day 2, the test compounds were diluted and added into the cell culture plates. The culture media containing the compounds were refreshed every other day. The cell culture supernatants were collected on day 8 for the HBV DNA and antigen determinations.
The compounds were tested at 7 concentrations, 3-fold dilution, in triplicate.
Two compounds were tested at 5×5 matrix, in triplicate plates.
DNA in the culture supernatants harvested on days 8 were isolated with QIAamp 96 DNA Blood Kit (Qiagen-51161). For each sample, 100 μl of the culture supernatants was used to extract DNA. The DNA was eluted with 100 μl, 150 μl or 180 μl of AE. HBV DNA in the culture supernatants was quantified by qPCR. The combination effect was analyzed by the MacSynergy software. The primers are described below.

hepatitis B virus (HBV) = test: Serum HBsAg in humanized liver chimeric mouse model of chronic HBV infection (GS HBsAg EIA 3.0); format: in vivo; conditions: Compound 3 oral 100 mg/kg twice daily, SIRNA-NP intravenous 3 mg/kg every 2 weeks, ETV oral 1.2 μg/kg daily, pegIFN α-2a subcutaneous 30 μg/kg twice a week
Protocol: This work was conducted in a well-established humanized liver chimeric mouse model of chronic hepatitis B virus (HBV) infection (Tsuge et al., Hepatology, 42(5), 1046-54 (2005)). A persistent level of HBV infection was established in the animals prior to the treatment phase which started at Day 0.
The anti-HBV effects were assessed based on serum HBsAg levels using the GS HBsAg EIA 3.0 enzyme linked immunosorbent assay kit from Bio-Rad Laboratories as per manufacturer instructions; and serum HBV DNA levels measured from total extracted DNA using a quantitative PCR assay (primer/probe sequences from Tanaka et al., Journal of Medical Virology, 72, 223-229 (2004)).

SMILES	inhibition at 0.3125 µM [1] [%]	AVERAGE % INHIBITION, HBV DNA ([2]; COMPOUND 3 61.73 nM) [%]	AVERAGE % INHIBITION, HBV DNA ([2]; COMPOUND 3 185.19 nM) [%]	AVERAGE % INHIBITION, HBV DNA ([2]; COMPOUND 3 555.56 nM) [%]	AVERAGE % INHIBITION, HBV DNA ([2]; COMPOUND 3 1666.67 nM) [%]	AVERAGE % INHIBITION, HBV DNA ([2]; COMPOUND 3 5000.00 nM) [%]	Serum HBsAg (± SEM) (hepatitis B virus (HBV); Day 0 (start of treatment)) [IU/mL]	Serum HBsAg (± SEM) (hepatitis B virus (HBV); Day 21) [IU/mL]
CC[C@@H](C)NS(=O)(=O)c1ccc(F)c(C(=O)Nc2ccc(F)c(F)c2)c1 [Compound 3]	71	−28.13	−25.93	−3.32	25.94	74.78	–	–
C=C1[C@H](CO)[C@@H](O)C[C@@H]1n1cnc2c(=O)[nH]c(N)nc21 [ETV, Entecavir]	–	–	–	–	–	–	2649 ± 282	2975 ± 629
